Results published in patent publication US4048333A (priority 1971, dated 1977).

Assays:
echovirus 19 = experiment: one-step virus growth cycle experiments, echovirus 19; assay type: cell-based, echovirus 19 (FL cells); settings: maximum subtoxic concentration; for Results from the one-step virus growth cycle experiments, PFU/ml: control 2.6×10^9; for Results from the one-step virus growth cycle experiments, % of inhibition: virus yield vs control
poliovirus 1 [1] = assay type: cell-based, poliovirus 1 (FL cells); settings: maximum subtoxic concentration; for Results from one-step virus growth cycle experiments, % of inhibition: virus yield vs control; for Results from one-step virus growth cycle experiments, PFU/ml: control 1.2×10^9
FMD = tested on: FMD; set-up: species or system newborn mice; settings: mouse, in vivo
[2] = tested on: coxsackievirus B1, B3, A6 and A7; experiment: animal or person; assay type: in vivo, newborn mice; settings: for ED50: Enterovirus B, B1, in Mus musculus, sc, read-out: ED50 dose; for antiviral activity on experimental Coxsackie infections (in words): mouse, in vivo; for retardation of the course of the infection: newborn mice, 3-10 LD50, subcutaneous once daily
FMD virus type C = assay type: cell-based, FMD virus type C (calf kidney primary cultures)
[3] = acute toxicity / selectivity index, species not stated; settings: in vivo; species and route not given
coxsackievirus B1 = assay type: cell-based, coxsackievirus B1 (FL cells)
poliovirus 1 [4] = assay type: cell-based, poliovirus 1 (FL cells); settings: FL cells, 48 hour incubation
FMD virus = tested on: FMD virus; set-up: species or system guinea pigs; settings: guinea pig, in vivo
[5] = acute toxicity for rats (LD50, Pershin method); settings: rat, in vivo, ip, intraperitoneal
rats = experiment: subacute toxicity for rats; assay type: in vivo; settings: intraperitoneal, 200 mg/kg daily for 30 days
pregnant female rats = experiment: teratogenic effect in pregnant female rats; assay type: in vivo; settings: intraperitoneal, daily doses of 100 mg/kg
[6] = acute toxicity for mice (LD50, Pershin method); settings: mouse, in vivo; for LD50: mice, Pershin method

O=C(O)c1ccc(NC(=S)Nc2ccccc2)cc1O [Example 18]
Results from the one-step virus growth cycle experiments, PFU/ml (echovirus 19): < 1×10^6 PFU/ml
Results from the one-step virus growth cycle experiments, % of inhibition (echovirus 19): > 99.96%

Cc1cccc(NC(=S)Nc2ccccc2)c1 [N-phenyl-N'-3-tolylthiourea]
Results from one-step virus growth cycle experiments, % of inhibition (poliovirus 1 [1]): 95-99%

Oc1cccc(NC(=S)Nc2ccccc2)c1 [Example 19]
Results from the one-step virus growth cycle experiments, PFU/ml (echovirus 19): 2×10^6 PFU/ml
Results from the one-step virus growth cycle experiments, % of inhibition (echovirus 19): 99.92%

O=[N+]([O-])c1ccc(O)c(NC(=S)Nc2ccccc2)c1 [Example 20, N-phenyl-N'-2-hydroxy-5-nitrophenylthiourea]
Results from the one-step virus growth cycle experiments, PFU/ml (echovirus 19): 5.9×10^7 PFU/ml
Results from the one-step virus growth cycle experiments, % of inhibition (echovirus 19): 97.73%

O=[N+]([O-])c1ccc(O)c(NC(=S)Nc2ccccc2)c1 [Example 7]
Results from one-step virus growth cycle experiments, PFU/ml (poliovirus 1 [1]): 3.5×10^8 PFU/ml
Results from one-step virus growth cycle experiments, % of inhibition (poliovirus 1 [1]): 70.83%

S=C(Nc1ccccc1)Nc1ccc(Cl)cc1NC(=S)Nc1ccccc1 [Example 11]
Results from one-step virus growth cycle experiments, PFU/ml (poliovirus 1 [1]): 4.3×10^8 PFU/ml
Results from one-step virus growth cycle experiments, % of inhibition (poliovirus 1 [1]): 57.00%

O=C(O)c1ccccc1NC(=S)Nc1ccccc1 [N-phenyl-N'-2-carboxyphenylthiourea]
Results from one-step virus growth cycle experiments, % of inhibition (poliovirus 1 [1]): 95-99%
Results from the one-step virus growth cycle experiments, % of inhibition (echovirus 19): above 99%

Oc1cccc(NC(=S)Nc2ccccc2)c1 [Example 22, N-phenyl-N'-3-hydroxyphenylthiourea]
animals in which development of FMD encephalitis is prevented (FMD): 33.3%
ED50 [2]: 86.6 mg/kg
antiviral activity on experimental Coxsackie infections (in words) [2]: marked antiviral activity
retardation of the course of the infection [2]: 2 to 3 days
Results from the one-step virus growth cycle experiments, % of inhibition (FMD virus type C): 97.92%
Results from the one-step virus growth cycle experiments, PFU/ml (FMD virus type C): 1.5×10^5 PFU/ml
LD50 [3]: 1000 mg/kg
Results from the one-step virus growth cycle experiments, % of inhibition (echovirus 19): above 99%

Cc1cccc(NC(=S)Nc2ccccc2)c1 [Example 9]
Results from one-step virus growth cycle experiments, PFU/ml (poliovirus 1 [1]): 1.4×10^7 PFU/ml
Results from one-step virus growth cycle experiments, % of inhibition (poliovirus 1 [1]): 98.79%

S=C(Nc1ccccc1)Nc1cnc2ccccc2c1 [Example 1]
Results from one-step virus growth cycle experiments, PFU/ml (poliovirus 1 [1]): 3.3×10^8 PFU/ml
Results from one-step virus growth cycle experiments, % of inhibition (poliovirus 1 [1]): 67.00%

O=C(O)c1ccc(NC(=S)Nc2ccccc2)cc1O [Example 12]
Results from the one-step virus growth cycle experiments, PFU/ml (coxsackievirus B1): ≤ 1×10^6 PFU/ml

Oc1cccc(NC(=S)Nc2ccccc2)c1 [Example 5]
Results from one-step virus growth cycle experiments, PFU/ml (poliovirus 1 [1]): 7×10^6 PFU/ml
Results from one-step virus growth cycle experiments, % of inhibition (poliovirus 1 [1]): 99.42%
Results from the gradient plaque-inhibition test (poliovirus 1 [4]): + +

CC(=O)c1ccc(NC(=S)Nc2ccccc2)cc1 [Example 10]
Results from one-step virus growth cycle experiments, PFU/ml (poliovirus 1 [1]): 4.6×10^7 PFU/ml
Results from one-step virus growth cycle experiments, % of inhibition (poliovirus 1 [1]): 96.17%

S=C(Nc1ccccc1)Nc1cccc2cccnc12 [Example 2]
Results from one-step virus growth cycle experiments, PFU/ml (poliovirus 1 [1]): 5.2×10^8 PFU/ml
Results from one-step virus growth cycle experiments, % of inhibition (poliovirus 1 [1]): 48.00%

Oc1ccc(NC(=S)Nc2ccccc2)cc1 [Example 6]
Results from one-step virus growth cycle experiments, PFU/ml (poliovirus 1 [1]): 3.7×10^8 PFU/ml
Results from one-step virus growth cycle experiments, % of inhibition (poliovirus 1 [1]): 69.17%

Oc1ccc(NC(=S)Nc2ccccc2)cc1 [Example 14]
Results from the one-step virus growth cycle experiments, PFU/ml (coxsackievirus B1): < 1×10^6 PFU/ml

Oc1ccc(NC(=S)Nc2ccccc2)cc1 [Example 24, N-phenyl-N'-4-hydroxyphenylthiourea]
reduction of the number of ailing animals compared with the placebo group (FMD virus): reduces the number of ailing animals two to three and a half times
Results from the one-step virus growth cycle experiments, % of inhibition (FMD virus type C): 99.65%
Results from the one-step virus growth cycle experiments, PFU/ml (FMD virus type C): 2.5×10^4 PFU/ml

Oc1cccc(NC(=S)Nc2ccccc2)c1 [Example 13]
Results from the one-step virus growth cycle experiments, PFU/ml (coxsackievirus B1): ≤ 1×10^6 PFU/ml

O=C(O)c1ccccc1NC(=S)Nc1ccccc1 [Example 3]
Results from one-step virus growth cycle experiments, PFU/ml (poliovirus 1 [1]): 5.9×10^7 PFU/ml
Results from one-step virus growth cycle experiments, % of inhibition (poliovirus 1 [1]): 95.09%

O=C(O)c1ccc(NC(=S)Nc2ccccc2)cc1O [Example 4, N-phenyl-N'-4-carboxy-5-hydroxyphenylthiourea]
Results from one-step virus growth cycle experiments, PFU/ml (poliovirus 1 [1]): < 1×10^6 PFU/ml
Results from one-step virus growth cycle experiments, % of inhibition (poliovirus 1 [1]): > 99.92%
ED50 [2]: 43.3 mg/kg
antiviral activity on experimental Coxsackie infections (in words) [2]: marked antiviral activity
retardation of the course of the infection [2]: 2 to 3 days
LD50 [5]: 734 mg/kg
subacute toxicity: changes in general state, behaviour, weight, blood pattern (rats): no changes in the general state and behaviour of the animals, or in their weight, the blood pattern, etc. were observed
teratogenic effect (pregnant female rats): No teratogenic effect
LD50 ([6]; ip, intraperitoneal): 550 mg/kg
LD50 ([6]; sc, subcutaneous): > 1000 mg/kg
selectivity ratio ([6]; LD50 /ED50, read-out: selectivity index (LD50 /ED50)): ≥ 23
Results from the one-step virus growth cycle experiments, % of inhibition (echovirus 19): above 99%

O=[N+]([O-])c1ccc(O)c(NC(=S)Nc2ccccc2)c1 [Example 15]
Results from the one-step virus growth cycle experiments, % of inhibition (coxsackievirus B1): 93.87%
Results from the one-step virus growth cycle experiments, PFU/ml (coxsackievirus B1): 4.6×10^7 PFU/ml

O=C(O)CCCNC(=S)Nc1ccccc1 [Example 8, γ-phenylthioureidobutyric acid]
Results from one-step virus growth cycle experiments, PFU/ml (poliovirus 1 [1]): 1.5×10^7 PFU/ml
Results from the one-step virus growth cycle experiments, PFU/ml (coxsackievirus B1): ≤ 1×10^6 PFU/ml
Results from the one-step virus growth cycle experiments, PFU/ml (echovirus 19): 5× 10^6 PFU/ml
Results from the one-step virus growth cycle experiments, % of inhibition (echovirus 19; listed as 21): 99.81%
Results from the one-step virus growth cycle experiments, % of inhibition (echovirus 19; listed as μ-phenylthioureidobutyric acid): above 99%

CC(=O)c1ccc(NC(=S)Nc2ccccc2)cc1 [N-phenyl-N'-acetylphenylthiourea]
Results from one-step virus growth cycle experiments, % of inhibition (poliovirus 1 [1]): 95-99%

O=C(O)c1ccccc1NC(=S)Nc1ccccc1 [Example 17]
Results from the one-step virus growth cycle experiments, PFU/ml (echovirus 19): 5×10^6 PFU/ml
Results from the one-step virus growth cycle experiments, % of inhibition (echovirus 19): 99.81%
